In data set [1] the target is T1, GSK-3β (AA 1-420) (Homo sapiens, UniProt P49841).
T1 construct: GSK-3β (AA 1-420)
Kind of data set: Ki determination for the inhibition of GSK-3 (coupled enzyme system). Format: biochemical. Particulars: 20 μM ATP, 20 nM GSK-3β, 30° C. As to the method: Compounds were screened for their ability to inhibit GSK-3β (AA 1-420) activity using a standard coupled enzyme system (Fox et al. (1998) Protein Sci. 7, 2249). Reactions were carried out in a solution containing 100 mM HEPES (pH 7.5), 10 mM MgCl2, 25 mM NaCl, 300 μM NADH, 1 mM DTT and 1.5% DMSO. Final substrate concentrations in the assay were 20 μM ATP (Sigma Chemicals, St Louis, Mo.) and 300 μM peptide (HSSPHQS (PO3H2) EDEEE, American Peptide, Sunnyvale, Calif.). Reactions were carried out at 30° C. and 20 nM GSK-3β. Final concentrations of the components of the coupled enzyme system were 2.5 mM phosphoenolpyruvate, 300 μM NADH, 30 μg/ml pyruvate kinase and 10 μg/ml lactate dehydrogenase.
An assay stock buffer solution was prepared containing all of the reagents listed above with the exception of ATP and the test compound of interest. The assay stock buffer solution (175 μl) was incubated in a 96 well plate with 5 μl of the test compound of interest at final concentrations spanning 0.002 μM to 30 μM at 30° C. for 10 min. […] The reaction was initiated by the addition of 20 μl of ATP (final concentration 20 μM). Rates of reaction were obtained using a Molecular Devices Spectramax plate reader (Sunnyvale, Calif.) over 10 min at 30° C. The Ki values were determined from the rate data as a function of inhibitor concentration.

Data set [2] deals with T2, Aurora-2 (Homo sapiens, UniProt O14965).
T2 sequence (O14965 1-403): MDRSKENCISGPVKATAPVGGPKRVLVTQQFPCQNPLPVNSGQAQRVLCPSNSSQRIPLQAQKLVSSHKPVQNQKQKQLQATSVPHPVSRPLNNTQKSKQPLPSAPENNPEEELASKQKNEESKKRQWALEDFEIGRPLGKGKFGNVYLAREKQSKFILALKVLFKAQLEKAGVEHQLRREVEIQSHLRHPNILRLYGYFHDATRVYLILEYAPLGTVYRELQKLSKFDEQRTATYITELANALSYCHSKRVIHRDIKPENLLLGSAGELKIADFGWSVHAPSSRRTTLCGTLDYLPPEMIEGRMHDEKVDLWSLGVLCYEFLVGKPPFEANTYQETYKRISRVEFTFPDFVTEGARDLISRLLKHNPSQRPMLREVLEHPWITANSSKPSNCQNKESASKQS
Kind of data set: Ki determination for the inhibition of Aurora-2 (coupled enzyme assay). Format: biochemical. Particulars: 70 nM Aurora-2, 30° C. As to the method: Compounds were screened in the following manner for their ability to inhibit Aurora-2 using a standard coupled enzyme assay (Fox et al (1998) Protein Sci 7, 2249).
To an assay stock buffer solution containing 0.1M HEPES 7.5, 10 mM MgCl2, 1 mM DTT, 25 mM NaCl, 2.5 mM phosphoenolpyruvate, […], 30 mg/ml pyruvate kinase, 10 mg/ml lactate dehydrogenase, […], and 800 μM peptide (LRRASLG, American Peptide, Sunnyvale, Calif.) was added a DMSO solution of a compound of the present invention to a final concentration of 30 μM. The resulting mixture was incubated at 30° C. for 10 min. The reaction was initiated by the addition of 10 μL of Aurora-2 stock solution to give a final concentration of 70 nM in the assay. The rates of reaction were obtained by monitoring absorbance at 340 nm over a 5 minute read time at 30° C. using a BioRad Ultramark plate reader (Hercules, Calif.). The Ki values were determined from the rate data as a function of inhibitor concentration.

Bounds are passed on as bounds.

T1 sequence (P49841 whole entry, the tested form may be a part): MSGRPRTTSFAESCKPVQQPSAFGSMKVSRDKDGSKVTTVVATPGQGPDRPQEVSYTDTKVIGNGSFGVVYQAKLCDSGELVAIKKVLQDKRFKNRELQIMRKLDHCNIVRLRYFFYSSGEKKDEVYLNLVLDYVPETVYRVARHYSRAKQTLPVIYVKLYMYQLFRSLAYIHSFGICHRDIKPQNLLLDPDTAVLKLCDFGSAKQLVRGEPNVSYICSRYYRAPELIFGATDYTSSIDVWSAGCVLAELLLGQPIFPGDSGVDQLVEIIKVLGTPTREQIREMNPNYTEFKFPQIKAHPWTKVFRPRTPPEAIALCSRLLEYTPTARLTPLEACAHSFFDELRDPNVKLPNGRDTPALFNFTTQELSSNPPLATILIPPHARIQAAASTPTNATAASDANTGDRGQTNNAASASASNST

In the case of `COc1ccc(Nc2nc(Nc3cc(C)[nH]n3)c3ccccc3n2)cc1-c1ccccc1` [IIc-58, [2-(2-Methoxybiphenyl-5-ylamino)-quinazolin-4-yl]-(5-methyl-2H-pyrazol-3-yl)-amine], the inhibitory constant (Ki) in data set [1] is 1000 to 7000 nM; in data set [2], less than 100 nM.

Regarding `CCc1cc(Nc2cc(C)[nH]n2)nc(C(C)(C)c2ccccc2)n1` [IIId-20], the Ki is less than 100 nM in data set [1] and 100 to 1000 nM in data set [2].

Take `CC(=O)Nc1ccc(Sc2nc(Nc3cc(C)[nH]n3)c3cccc(OCCCN(C)C)c3n2)cc1` [IIa-73, [2-(4-Acetamidophenylsulfanyl)-8-(3-dimethylamino-propoxy)-quinazolin-4-yl]-(5-methyl-2H-pyrazol-3-yl)-amine]: the melting point was in the range of 170 to 172 °C. Also, the Ki in data set [2] is less than 100 nM.

`Cc1cc(Nc2nc(Nc3cccc(Cl)c3)nc3ccccc23)n[nH]1` [IIc-11, [2-(3-Chlorophenylamino)-quinazolin-4-yl]-(5-methyl-2H-pyrazol-3-yl)-amine]: the inhibition constant (Ki) in data set [1] and in data set [2] was less than 100 nM throughout.

For the compound `Cc1cc(Nc2cc(-c3ccccc3)nc(Oc3ccc(NC(=O)C4CC4)cc3)n2)n[nH]1` [IIIb-16], the inhibitory constant (Ki) in data set [1] and in data set [2] was 100 to 1000 nM in each case.

`Cc1cc(Nc2nc(Oc3ccc4ccccc4c3)nc3ccccc23)n[nH]1` [IIb-2, (5-Methyl-2H-pyrazol-3-yl)-[2-(naphthalen-2-yloxy)-quinazolin-4-yl]-amine] showed a melting point of more than 300 °C. The compound also showed an inhibition constant Ki in data set [2] of less than 100 nM.

For `Cc1cc(Nc2nc(Sc3ccc(NC(=O)CN4CCOCC4)cc3)nc3ccccc23)n[nH]1` [IIa-60, (5-Methyl-2H-pyrazol-3-yl)-{2-[4-(2-morpholin-4-yl-acetylamino)-phenylsulfanyl]-quinazolin-4-yl}-amine], the melting point lay in the range of 266 to 267 °C. Also, the Ki in data set [2] was less than 100 nM.

Regarding `c1ccc(Nc2nc(Nc3cc(-c4ccco4)[nH]n3)cc(-c3ccccc3)n2)cc1` [IIIc-15, [5-(Furan-2-yl)-2H-pyrazol-3-yl]-(6-phenyl-2-phenylamino-pyrimidin-4-yl)-amine], the Ki in data set [1] and in data set [2] was less than 100 nM in each case.

As to `CCc1cc(Nc2cc(C)[nH]n2)nc(Nc2ccc(Cl)cc2)n1` [IIIc-12, [2-(4-Chlorophenyl)amino-6-ethyl-pyrimidin-4-yl]-(5-methyl-2H-pyrazol-3-yl)-amine], the Ki in data set [1] and in data set [2] was less than 100 nM each time.

For `Cc1cc(Nc2nc(COc3ccc(Cl)cc3)nc3c2CCCC3)n[nH]1` [IId-6, [2-(4-Chlorophenoxymethyl)-5,6,7,8-tetrahydro-quinazolin-4-yl]-(5-methyl-2H-pyrazol-3-yl)-amine], the Ki in data set [1] and in data set [2] was 100 to 1000 nM each time.

As to `CC(=O)Nc1ccc(Sc2nc(Nc3cc(C)[nH]n3)c3ccc([N+](=O)[O-])cc3n2)cc1` [IIa-53, [2-(4-Acetamido-phenylsulfanyl)-7-nitroquinazolin-4-yl]-(5-methyl-2H-pyrazol-3-yl)-amine], the Ki in data set [2] was less than 100 nM.

As to `Cc1cc(Nc2cc(N3CCOCC3)nc(SCc3ccc4ccccc4c3)n2)n[nH]1` [IIIa-42, (5-Methyl-2H-pyrazol-3-yl)-[6-morpholin-4-yl-2-(naphthalene-2-ylmethylsulfanyl)-pyrimidin-4-yl]-amine], the Ki in data set [1] is 100 to 1000 nM; in data set [2], 1000 to 10000 nM.

As for `Cc1cc(Nc2cc(-c3c(C)cccc3C)nc(Oc3ccc4ccccc4c3)n2)n[nH]1` [IIIb-9], the Ki in data set [2] is 1000 to 10000 nM.

Regarding `Cc1cc(Nc2cc(-c3ccccc3)[nH]n2)nc(Nc2ccc(Cl)cc2)n1` [IIIc-11, [2-(4-Chlorophenyl)amino-6-methyl-pyrimidin-4-yl]-(5-phenyl-2H-pyrazol-3-yl)-amine], the inhibitory constant (Ki) in data set [1] is less than 100 nM; in data set [2] it was 100 to 1000 nM.

`c1ccc(-c2cc(Nc3cc(C4CC4)[nH]n3)nc(Oc3ccc4ccccc4c3)n2)cc1` [IIIb-1] showed an inhibition constant Ki in data set [2] of 100 to 1000 nM.

Consider `COC(=O)c1cccc(Oc2nc(Nc3cc(C4CC4)[nH]n3)cc(-c3ccccc3)n2)c1` [IIIb-2], for which the Ki in data set [2] is 100 to 1000 nM.

As for `COc1nc(Nc2cc(C)[nH]n2)cc(N2CCN(C)CC2)n1` [IIIb-14], the values for the inhibition constant Ki in data set [1] and in data set [2] were less than 100 nM and 1000 to 10000 nM, respectively.

Consider `FC(F)(F)c1ccccc1Nc1nc(Nc2n[nH]c3ccccc23)c2ccccc2n1` [IIc-76, (1H-Indazol-3-yl)-[2-(2-trifluoromethylphenylamino)-quinazolin-4-yl]-amine], for which the Ki in data set [1] lay within 100 to 1000 nM; in data set [2], 1000 to 10000 nM.

In data set [2], `CSc1nc(Nc2cc(C)[nH]n2)cc(N2CCN(C)CC2)n1` [IIIa-14, [6-(4-Methylpiperazin-1-yl)-2-methylsulfanyl-pyrimidin-4-yl]-(5-methyl-2H-pyrazol-3-yl)-amine] yielded a Ki of 100 to 1000 nM.

Consider `Clc1ccccc1Nc1nc(Nc2n[nH]c3ccccc23)c2ccccc2n1` [IIc-75, [2-(2-Chloro-phenyl)-amino-quinazolin-4-yl]-(1H-indazol-3-yl)-amine], for which the Ki in data set [1] fell in the range of 100 to 1000 nM; in data set [2], 1000 to 10000 nM.

In data set [2], `CN1CCN(c2cc(Nc3cc(C4CC4)[nH]n3)nc(Oc3ccc4ccccc4c3)n2)CC1` [IIIb-8] yielded a Ki of 1000 to 10000 nM.

In the case of `CC(=O)Nc1ccc(Sc2nc(Nc3cc(C)[nH]n3)c3ccc(NO)cc3n2)cc1` [IIa-56, [2-(4-Acetamido-phenylsulfanyl)-7-hydroxyaminoquinazolin-4-yl]-(5-methyl-2H-pyrazol-3-yl)-amine], in data set [2], the inhibitory constant (Ki) was less than 100 nM.

In the case of `CCc1cc(Nc2cc(C)[nH]n2)nc(Nc2nc3ccccc3[nH]2)n1` [IIIc-10, [2-(Benzimidazol-2-ylamino-)6-ethyl-pyrimidin-4-yl]-(5-methyl-2H-pyrazol-3-yl)-amine], the Ki in data set [1] was in the range of 1000 to 7000 nM; in data set [2], 1000 to 10000 nM.

In the case of `COc1ccc(Sc2nc(Nc3cc(C4CC4)[nH]n3)c3ccccc3n2)cc1OC` [IIa-25, (5-Cyclopropyl-2H-pyrazol-3-yl)-[2-(3,4-dimethoxyphenylsulfanyl)-quinazolin-4-yl]-amine], the inhibition constant (Ki) in data set [1] is 1000 to 7000 nM; in data set [2], less than 100 nM.

Consider `CCC(=O)Nc1ccc(Oc2nc(Nc3cc(C)[nH]n3)cc(-c3ccccc3)n2)cc1` [IIIb-15], for which the Ki in data set [1] and in data set [2] was 100 to 1000 nM each time.

Take `Cc1cc(Nc2cc(-c3ccco3)[nH]n2)nc(Nc2ccc(Cl)cc2)n1` [IIIc-9, [2-(4-Chlorophenyl)amino-6-methyl-pyrimidin-4-yl]-[5-(furan-2-yl)-2H-pyrazol-3-yl]-amine]: the Ki in data set [1] was less than 100 nM; in data set [2] it was 100 to 1000 nM.

As to `COc1cccc(Nc2nc(Nc3cc(C)[nH]n3)c3ccccc3n2)c1` [IIc-56, [2-(3-Methoxyphenylamino)-quinazolin-4-yl]-(5-methyl-2H-pyrazol-3-yl)-amine], the figures for the inhibitory constant (Ki) in data set [1] and in data set [2] were 100 to 1000 nM and less than 100 nM, respectively.

For `c1ccc2cc(Oc3nc(Nc4cc(C5CC5)[nH]n4)cc(N4CCOCC4)n3)ccc2c1` [IIIb-7], the Ki in data set [1] and in data set [2] was 100 to 1000 nM each time.

In the case of `c1ccc(CCNc2nc(Nc3cc(C4CC4)[nH]n3)c3ccccc3n2)cc1` [IIc-28, (5-Cyclopropyl-2H-pyrazol-3-yl)-(2-phenetylamino-quinazolin-4-yl)-amine], the Ki is 100 to 1000 nM in data set [1] and less than 100 nM in data set [2].

In the case of `FC(F)(F)c1cccc(Nc2nc(Nc3n[nH]c4ccccc34)c3ccccc3n2)c1` [IIc-71, (1H-Indazol-3-yl)-[2-(3-trifluoromethylphenylamino)-quinazolin-4-yl]-amine], the values for the inhibitory constant (Ki) in data set [1] and in data set [2] were 1000 to 7000 nM and 1000 to 10000 nM, respectively.

The values are drawn from patent US6653300B2, “Pyrazole compounds useful as protein kinase inhibitors” (Vertex Pharmaceuticals Incorporated, priority 2000, dated 2003).
